How the values were obtained:
AQ STING (G230A-R293Q) = molecular target: T1, AQ STING (G230A-R293Q) (Homo sapiens, UniProt Q86WV6, G230A/H232R/R293Q); experiment: Differential Scanning Fluorimetry with AQ STING; type: binding; settings: thermal shift vs apoprotein, 150 µM CDN, truncated human AQ STING 0.1 mg/ml; for ΔTm at 150 µM: read-out: DSF ΔTm AQ STING
T1 construct: 8xHis (N, cleaved yes); SUMO (N, cleaved yes); made in house; host or cells: E. coli Rosetta-gami B (DE3)
Text: (§1) Purified PCR products were cleaved with restriction enzymes BamHI (cat. # R0136S, NEB, Ipswich, USA) and NotI (cat. # R0189S, NEB, Ipswich, USA) and cloned into the pSUMO vector linearized with the identical enzymes.
(§2) Bacterial pellets were re-suspended in ice-cold lysis buffer containing 50 mmol.1^-1 TrisCl (cat. # T1503, Sigma Aldrich, Czech Republic) pH 8.0, 300 mmol.1^-1 NaCl, 3 mmol.1^-1 β-mercaptoethanol (cat. # M6250, Sigma Aldrich, Czech Republic), 10% glycerol (cat. # G5516, Sigma Aldrich, Czech Republic) and 20 mmol.1^-1 imidazole (cat. # I5513, Sigma Aldrich, Czech Republic) using Dounce homogenizer. DNase I (cat. # D5025, Sigma Aldrich, Czech Republic) and RNase A (cat. # R6513, Sigma Aldrich, Czech Republic) were added (final concentration 50 µg/ml) together with MgCl2 (final concentration 5 mmol.l^-1) to the homogenate and bacteria were lysed using French Press G-M™ High-Pressure Cell Press Homogenizer (1500 psi, 3 cycles). […] The resin was poured into a chromatography column, washed with 50 ml buffer A (50 mmol.1^-1 TrisCl (pH 8.0), 800 mmol.1^-1 NaCl, 3 mmol.1^-1 β-mercaptol; 10% glycerol; 20 mmol.1^-1 imidazole) and 8-His-SUMO tagged STING proteins were eluted with 15 ml buffer A containing 300 mmol.1^-1 imidazole. […] Proteins were concentrated with Amicon® Ultra-15 10 K device (cat. # UFC901008, Merck Millipore, Billerica, USA) and flash frozen in liquid N2.
(§3) 20 µL solutions of the reaction mixtures were pipetted in triplicates into 96 well optical reaction plates and thermal denaturation of samples were performed on real time PCR cycler (LightCycler® 480 Instrument II - Roche, Basel, Switzerland). The first derivative of the thermal denaturation curves was performed to calculate denaturing temperatures of STING - CDN complexes and STING apoproteins. The thermal shift for each CDN was calculated by subtracting the average denaturing temperature of STING apoprotein from the average denaturing temperature of STING CDN complex.

WT STING [1] = molecular target: T2, WT STING (Homo sapiens, UniProt Q86WV6, H232R); experiment: Digitonin assay using 293T wtSTING-FL reporter cells; type: cell-based; settings: 293T wtSTING-FL cells; 30 minutes in Digitonin buffer, then 5 hours; ISRE firefly luciferase reporter
Text: Two complementary oligonucleotides of the sequence […] […] […] […] […] The oligonucleotides were mixed in equal molar amounts, hybridized, and cleaved by restriction endonucleases HindIII (cat. #. R0104S, NEB, Ipswich, USA) and BglII (cat. # R0144S, NEB, Ipswich, USA). Ultimately, they were ligated into plasmid pGL4.27 (cat. # E6651, Promega, Madison, USA) linearized with the same enzymes. As result the sequence with four ISRE sites was placed upstream of the minimum promoter of firefly luciferase reporter gene.
After 5 minutes incubation at room temperature (RT), 250 µL of the mixture was added dropwise to the cells in one well. Cells were incubated 36 hours at 37° C. with 5% CO2, and then detached with 0.05% Trypsin and 0.22 g/L EDTA (both cat. # L0941, Biowest, Riverside, USA).
Transfected cells were seeded onto poly-D-lysine coated six well plates at density 50,000 cells per 1 cm^2 in DMEM medium with high glucose containing 10% heat inactivated FBS, 30 µg/mL blasticidin (cat. # ant-bl-05, InvivoGen, San Diego, USA), 0.06 mg/ml Penicillin G and 0.1 mg/ml Streptomycin Sulfate (both cat. #. L0018, Biowest, Riverside, USA). The medium was replenished every 3 - 4 days until visible colonies of cells resistant to blasticidin were formed.
Blasticidin resistant cells stably expressing WT STING were further transfected with […] plasmid following the same procedure as described above. […] Homogeneous culture of stably double transfected cells was prepared by limiting dilution of cells in 96 well plates and wells with cells were selected that originated from a single cell.
The medium was removed next day and three fold serial dilutions of compounds in Digitonin buffer containing 50 mmol.l^-1 HEPES (cat. # H3375, Sigma Aldrich, Czech Republic) pH 7.0, 100 mmol.1^-1 KCl, 3 mmol.l^-1 MgCl2, 0.1 mmol.l^-1 DTT (cat. # D0632, Sigma Aldrich, Czech Republic), 85 mmol.1^-1 Sucrose (cat. # S7903, Sigma Aldrich, Czech Republic), 0.2% BSA (cat. # A2153, Sigma Aldrich, Czech Republic), 1 mmol.l^-1 ATP (cat. # A1852, Sigma Aldrich, Czech Republic), 0.1 mmol.1^-1 GTP (cat. # G8877, Sigma Aldrich, Czech Republic), and 10 µg/mL Digitonin A (cat. # D141, Sigma Aldrich, Czech Republic) were added to the cells. The buffer was removed after 30 minutes incubation at 37° C. with 5% CO2, the cells were washed once with 100 µl of cultivation medium, and 100 µl of medium was added to each well. The plates with cells were incubated for 5 hours at 37° C. with 5% CO2, 50µl of the medium was removed and 30 µl of ONE-Glo^Tm Luciferase Assay System reagent (cat. # E6120, Promega, Madison, USA) was added to each well. Luminescence was read on Synergy H1 (Biotek, Winooski, USA).
Target sequence in this assay (Q86WV6 whole entry H232R): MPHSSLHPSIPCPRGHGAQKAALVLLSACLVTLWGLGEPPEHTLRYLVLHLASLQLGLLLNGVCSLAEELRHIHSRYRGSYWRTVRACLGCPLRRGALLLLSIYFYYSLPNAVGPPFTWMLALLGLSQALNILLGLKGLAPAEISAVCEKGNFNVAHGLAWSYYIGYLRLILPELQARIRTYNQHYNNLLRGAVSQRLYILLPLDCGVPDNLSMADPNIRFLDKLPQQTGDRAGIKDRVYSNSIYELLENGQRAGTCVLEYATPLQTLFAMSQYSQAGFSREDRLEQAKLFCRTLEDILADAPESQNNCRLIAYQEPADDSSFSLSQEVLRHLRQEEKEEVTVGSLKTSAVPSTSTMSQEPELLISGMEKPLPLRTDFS

WT STING [2] = molecular target: T2, WT STING; experiment: Differential Scanning Fluorimetry with WT STING; type: binding; set-up: 8xHis (N, cleaved yes); SUMO (N, cleaved yes); made in house; host or cells: E. coli Rosetta-gami B (DE3); settings: thermal shift vs apoprotein, 150 µM CDN, truncated human WT STING 0.1 mg/ml; for ΔTm at 150 µM: read-out: DSF ΔTm WT STING
Text: as §1, §2, §3
Target sequence in this assay (Q86WV6 140-343 H232R): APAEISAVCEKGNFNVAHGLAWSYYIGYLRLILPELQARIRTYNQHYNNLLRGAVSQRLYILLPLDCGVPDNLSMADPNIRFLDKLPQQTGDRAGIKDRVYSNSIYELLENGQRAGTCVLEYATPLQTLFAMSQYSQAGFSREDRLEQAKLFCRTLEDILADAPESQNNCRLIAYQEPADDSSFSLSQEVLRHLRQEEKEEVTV

T1 sequence (Q86WV6 140-343 G230A/H232R/R293Q): as the sequence (Q86WV6 140-343 H232R) above, with G91A, R154Q counted along it

Compound | DSF ΔTm AQ STING (AQ STING (G230A-R293Q)) [°C] | EC50 (WT STING [1]) [µM] | DSF ΔTm WT STING (WT STING [2]) [°C] | ΔTm at 150 µM (AQ STING (G230A-R293Q)) [°C] | ΔTm at 150 µM (WT STING [2]) [°C]
Nc1nc2c(ncn2[C@@H]2O[C@@H]3COP(=O)(O)O[C@H]4[C@@H](O)[C@H](n5cnc6c(=O)[nH]c(N)nc65)O[C@@H]4COP(=O)(O)O[C@H]3[C@H]2O)c(=O)[nH]1 [3′3′c-di-GMP, 3′3′-c-di-GMP, reference compound] | 7.7 | 5.8 | 2.6 | – | –
Nc1nc2c(ncn2[C@H]2C[C@@H]3OP(=O)(O)/C=C/[C@H]4O[C@@H](n5cnc6c(N)ncnc65)[C@H](F)[C@@H]4OP(=O)(O)OC[C@H]3O2)c(=O)[nH]1 [Compound 57, (1R,6R,8R,10S,13E,15R,17R,18R)-8-(2-amino-6-oxo-6,9-dihydro-1H-purin-9-yl)-17-(6-amino-9H-purin-9-yl)-18-fluoro-3,12-dihydroxy-2,4,7,11,16-pentaoxa-3λ^5,12λ^5-diphosphatricyclo[13.3.0.0^6,^10]octadec-13-ene-3,12-dione] | – | 0.12 | – | 11.3 | 6.1
Nc1nc(N)c2ncn([C@@H]3O[C@@H]4COP(=O)(O)O[C@H]5[C@@H](O)[C@H](n6cnc7c(=O)[nH]c(N)nc76)O[C@@H]5/C=C\P(=O)(O)O[C@H]4[C@H]3O)c2n1 (stereo in doubt) [Compound 69, (1S,6R,8R,9R,10S,15R,17R,18R)-17-(2-amino-6-oxo-6,9-dihydro-1H-purin-9-yl)-8-(2,6-diamino-9H-purin-9-yl)-3,9,12,18-tetrahydroxy-2,4,7,11,16-pentaoxa-3λ^5,12λ^5-diphosphatricyclo[13.3.0.0^6,^10]octadec-13-ene-3,12-dione] | – | 32.8 | – | 3.5 | 1.2
Nc1ncnc2c1ncn2[C@@H]1O[C@@H]2COP(=O)(O)O[C@H]3[C@@H](O)[C@H](n4cnc5c(N)ncnc54)O[C@@H]3COP(=O)(O)O[C@H]2[C@H]1O [3′3′c-di-AMP, 3′3′-c-di-AMP, reference compound] | 9.3 | 0.3 | 2.6 | – | –
Nc1nc2c(ncn2[C@@H]2O[C@@H]3/C=C/P(=O)(O)O[C@H]4[C@@H](F)[C@H](n5cnc6c(N)ncnc65)O[C@@H]4COP(=O)(O)O[C@H]3[C@H]2F)c(=O)[nH]1 [Compound 54, (1R,6R,8R,9R,10R,13E,15R,17R,18R)-17-(2-amino-6-oxo-6,9-dihydro-1H-purin-9-yl)-8-(6-amino-9H-purin-9-yl)-9,18-difluoro-3,12-dihydroxy-2,4,7,11,16-pentaoxa-3λ^5,12λ^5-diphosphatricycl [13.3.0.0^6,^10]octadec-13-ene-3,12-dione] | – | 0.02 | – | 15 | 9.2
Nc1nc2c(ncn2[C@@H]2O[C@@H]3/C=C/P(=O)(O)O[C@H]4[C@@H](F)[C@H](n5cnc6c(=O)[nH]c(N)nc65)O[C@@H]4COP(=O)(O)O[C@H]3[C@H]2F)c(=O)[nH]1 [Compound 56, (1R,6R,8R,9R,10R,13E,15R,17R,18R)-8,17-bis(2-amino-6-oxo-6,9-dihydro-1H-purin-9-yl)-9,18-difluoro-3,12-dihydroxy-2,4,7,11,16-pentaoxa-3λ^5,12λ^5-diphosphatricyclo[13.3.0.0^6,^10]octadec-13-ene-X3.12-dione] | – | 0.5 | – | 10.6 | 4.1
CSc1ncnc2c1ncn2[C@@H]1O[C@@H]2COP(=O)(O)O[C@H]3[C@@H](O)[C@H](n4cnc5c(=O)[nH]c(N)nc54)O[C@@H]3/C=C\P(=O)(O)O[C@H]2[C@H]1O (stereo in doubt) [Compound 70, (1S,6R,8R,9R,10S,15R,17R,18R)-17-(2-amino-6-oxo-6,9-dihydro-1H-purin-9-yl)-3,9,12,18-tetrahydroxy-8-[6-(methylsulfanyl)-9H-purin-9-yl]-2,4,7,1 1,16-pentaoxa-3λ^5,12λ^5-diphosphatricyclo[13.3.0.0^6,^10]octadec-13-ene-3,12-dione] | – | 16.1 | – | 1.1 | 0.5
Nc1nc2c(ncn2[C@@H]2O[C@@H]3/C=C\P(=O)(O)O[C@H]4[C@@H](N)[C@H](n5cnc6c(N)ncnc65)O[C@@H]4COP(=O)(O)O[C@H]3[C@H]2O)c(=O)[nH]1 [Compound 67, (1S,6R,8R,9R,10S,13Z,15R,17R,18R)-9-amino-17-(2-amino-6-oxo-6,9-dihydro-1H-purin-9-yl)-8-(6-amino-9H-purin-9-yl)-3,12,18-trihydroxy-2,4,7,11,16-pentaoxa-3λ^5,12λ^5-diphosphatricyclo[13.3.0.0^6,^10]octadec-13-ene-3,12-dione] | – | 6.4 | – | 2.9 | 0.3
Nc1nc2c(ncn2[C@@H]2O[C@@H]3/C=C/P(=O)(O)O[C@H]4C[C@H](n5cnc6c(N)ncnc65)O[C@@H]4COP(=O)(O)O[C@H]3[C@H]2O)c(=O)[nH]1 [Compound 55, (1S,6R,8R,10S,13E,15R,17R,18R)-17-(2-amino-6-oxo-6,9-dihydro-1H-purin-9-yl)-8-(6-amino-9H-purin-9-yl)-3,12,18-trihydroxy-2,4,7,11,16-pentaoxa-3λ^5,12λ^5-diphosphatricyclo[13.3.0.0^6,^10]octadec-13-ene-3,12-dione] | – | 0.78 | – | 8.6 | 1.9
Nc1nc2c(ncn2[C@@H]2O[C@@H]3/C=C\P(=O)(O)O[C@H]4C[C@H](n5cnc6c(N)nc(F)nc65)O[C@@H]4COP(=O)(O)O[C@H]3[C@H]2O)c(=O)[nH]1 [Compound 66, (1S,6R,8R,10S,13Z,15R,17R,18R)-8-(6-amino-2-fluoro-9H-purin-9-yl)-17-(2-amino-6-oxo-6,9-dihydro-1H-purin-9-yl)-3,12,18-trihydroxy-2,4,7,11,16-pentaoxa-3λ^5,12λ^5-diphosphatricyclo[13.3.0.0^6,^10]octadec-13-ene-3,12-dione] | – | 15 | – | 1.7 | 0.5

— patent US20230303613A1, “3′3′ CYCLIC DINUCLEOTIDES WITH AN ALKENYLENE” (Institute of Organic Chemistry and Biochemistry AS CR, v.v.i, priority 2020, published 2023)
